Values of other authors in paper PMC7383075 (Journal of Nuclear Medicine, 2020).

Legend:
insulinomas = conditions: at the proper dilution; ref [23]
Excerpt: A targeted approach, as described in this study, has the benefit of creating signals with higher contrast between the target and surrounding tissue and therefore more precise delineation of the lesion. […] Re ...

[1] = system: primary breast cancer lesions, as well as peritoneal metastases of colorectal cancer; conditions: primary breast cancer lesions and peritoneal metastases of colorectal cancer; ref [29],[30]
Excerpt: Contributing to the potential for clinical translation of this tracer is the use of the NIR fluorophore IRDye 800CW. This dye is widely used in the development of targeted fluorescence imaging approaches, and several studies already have shown the first successful clinical applications using this fluorophore. […] Also, IRDye 800CW coupled to the monoclonal antibody cetuximab was successfully used fo ...

Compound	uptake in insulinomas versus normal pancreatic tissue (insulinomas)	detection of cancer lesions [1]
CN(C)c1ccc2nc3ccc(=[N+](C)C)cc-3sc2c1 [methylene blue]	higher uptake in insulinomas than in normal pancreatic tissue	–
IRDye 800CW coupled to the monoclonal antibody bevacizumab: IRDye 800CW coupled to the monoclonal antibody bevacizumab	–	shown to be feasible
